Experiments:
[1] = biological target: T1, human α2-GABAA receptor (BZD site, membrane protein of HEK293 cells) (Homo sapiens, UniProt P18507+P47869); assay: Radioligand competitive binding assay (3H-flunitrazepam) at the BZD site of the α2-GABAA receptor; details: competition with 1 nM 3H-flunitrazepam; Ki calculated from IC50; read-out: α2 Ki
T1 construct: expressed in transfected cells

[2] = biological target: T2, human α1-GABAA receptor (α1-GABAAR-HEK293 cells) (Homo sapiens, UniProt P14867+P18507); assay: Whole-cell patch-clamp electrophysiology, positive allosteric modulatory activity on α1-GABAA receptor; assay type: cell-based; details: read-out: α1-GABAA positive allosteric modulatory activity
T2 construct: expressed in transfected cells

[3] = biological target: T3, human α2-GABAA receptor (α2-GABAAR-HEK293 cells) (Homo sapiens, UniProt P18507+P47869); assay: Whole-cell patch-clamp electrophysiology, positive allosteric modulatory activity on α2-GABAA receptor; assay type: cell-based; details: read-out: α2-GABAA positive allosteric modulatory activity
T3 construct: expressed in transfected cells

Row | Compound | Ki [1] [nM] | activation at 0.1 µM [2] [%] | activation at 0.1 µM [3] [%]
1 | CCN1C(=O)COc2cc(-c3cc(-c4cnnc5c4ncn5CC)ccc3F)c(OC)cc21 [Example 31, 4-Ethyl-7-(5-(7-ethyl-7H-imidazo[4,5-c]pyridazin-4-yl)-2-fluorophenyl)-6-methoxy-2H-benzo[b][1,4]oxazin-3(4H)-one] | 6.85 | 13 | 96
2 | COc1cc2c(cc1-c1cc(-c3cnnc4c3ncn4C(C)C)ccc1F)OCC(=O)N2C [Example 36, 7-(2-Fluoro-5-(7-isopropyl-7H-imidazo[4,5-c]pyridazin-4-yl)phenyl)-6-methoxy-4-methyl-2H-benzo[b][1,4]oxazin-3(4H)-one] | 5.73 | 25 | 137
3 | CCn1cnc2c(-c3ccc(F)c(-c4cc5c(cc4OC)N(C)C(=O)CO5)c3)cnnc21 [Example 42, 7-(5-(7-Ethyl-7H-imidazo[4,5-c]pyridazin-4-yl)-2-fluorophenyl)-6-methoxy-4-methyl-2H-benzo[b][1,4]oxazin-3(4H)-one] | 2.92 | 27 | 145
4 | CCn1cnc2c(-c3ccc(F)c(-c4cc5oc(=O)n(C)c5cc4OC)c3)cnnc21 [Example 87, 6-(5-(7-Ethyl-7H-imidazo[4,5-c]pyridazin-4-yl)-2-fluorophenyl)-5-methoxy-3-methylbenzo[d]oxazol-2(3H)-one] | 3.38 | 3 | 114
5 | CCn1cnc2c(-c3ccc(F)c(-c4cc5c(cc4OC)N(C)C(=O)C5)c3)cnnc21 [Example 161, 5-(5-(7-Ethyl-7H-imidazo[4,5-c]pyridazin-4-yl)-2-fluorophenyl)-6-methoxy-1-methyldihydro-2-one] | 8.7 | 65 | 118
